Test results reported in patent publication US8946266B2, “Substituted triazole and imidazole derivatives as gamma secretase modulators” (Janssen Pharmaceuticals, Inc., priority 2009, dated 2015).

Assays:
[1] = test system: Aβtotal; assay: γ-secretase-modulating activity, Method 1: Aβtotal sandwich ELISA in supernatant of SKNBE2 cells carrying APP 695-wild type; assay type: cell-based; settings: Table 3a, 18 h, averaged IC50 values
Method: (§1) Pharmacology A) Screening of the Compounds of the Invention for γ-Secretase-Modulating Activity A1) Method 1
(§2) Screening was carried out using SKNBE2 cells carrying the APP 695-wild type, grown in Dulbecco's Modified Eagle's Medium/Nutrient mixture F-12 (DMEM/NUT-mix F-12) (HAM) provided by Gibco (cat no. 31330-38) containing 5% Serum/Fe supplemented with 1% non-essential amino acids. Cells were grown to near confluency.
(§3) The screening was performed using the assay as described in Citron et al (1997) Nature Medicine 3: 67. Briefly, cells were plated in a 96-well plate at about 10^5 cells/ml one day prior to addition of compounds. Compounds were added to the cells in Ultraculture (Lonza, BE12-725F) supplemented with 1% glutamine (Invitrogen, 25030-024) for 18 h. The media were assayed by two sandwich ELISAs, for Aβ42 and Aβtotal. Toxicity of the compounds was assayed by WST-1 cell proliferation reagent (Roche, 1 644 807) according to the manufacturer's protocol.
To quantify the amount of Aβtotal in the cell supernatant, samples and standards were added to a 6E10-coated plate. The plate was allowed to incubate overnight at 4° C. in order to allow formation of the antibody-amyloid complex. Following this incubation and subsequent wash steps a selective anti-Aβ-antibody conjugate (biotinylated 4G8) was added and incubated for a minimum of 1 h in order to allow formation of the antibody-Amyloid-antibody-complex. After incubation and appropriate wash steps, a Streptavidine-Peroxidase-Conjugate was added, followed 30 minutes later by an addition of Quanta Blu fluorogenic peroxidase substrate according to the manufacturer's instructions (Pierce Corp., Rockford, Ill.).

[2] = test system: Aβtotal; assay: γ-secretase-modulating activity, Method 2: Aβtotal Alphalisa in supernatant of SKNBE2 cells carrying APP 695-wild type (Table 3b); assay type: cell-based; settings: overnight, read-out: IC50 Aβtot
Outline: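 SKNBE2 cells expressing wild-type APP 695 were incubated overnight at 37 °C, 5% CO2 with test compound at a range of concentrations. Aβtotal in supernatant was measured by AlphaLISA sandwich (N-terminal JRF/AβN/25 acceptor, biotinylated mid-region 4G8 donor); IC50 from 4-parameter fit of percent control versus log concentration.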

[3] = test system: Aβ42; assay: γ-secretase-modulating activity, Method 1: Aβ42 sandwich ELISA in supernatant of SKNBE2 cells carrying APP 695-wild type (Table 3a); assay type: cell-based; settings: 18 h, averaged IC50 values
Method: as §1, §2, §3
To quantify the amount of Aβ42 in the cell supernatant, commercially available Enzyme-Linked-Immunosorbent-Assay (ELISA) kits were used (Innotest® β-Amyloid(1-42), Innogenetics N.V., Ghent, Belgium). The Aβ42 ELISA was performed essentially according to the manufacturer's protocol. Briefly, the standards (dilutions of synthetic Aβ1-42) were prepared in polypropylene Eppendorf with final concentrations of 8000 down to 3.9 pg/ml (1/2 dilution step). Samples, standards and blanks (100 μl) were added to the anti-Aβ42-coated plate supplied with the kit (the capture antibody selectively recognizes the C-terminal end of the antigen). The plate was allowed to incubate 3 h at 25° C. in order to allow formation of the antibody-amyloid complex. Following this incubation and subsequent wash steps a selective anti-Aβ-antibody conjugate (biotinylated 3D6) was added and incubated for a minimum of 1 hour (h) in order to allow formation of the antibody-Amyloid-antibody-complex. After incubation and appropriate wash steps, a Streptavidine-Peroxidase-Conjugate was added, followed 30 minutes later by an addition of 3,3′,5,5′-tetramethylbenzidine (TMB)/peroxide mixture, resulting in the conversion of the substrate into a coloured product. This reaction was stopped by the addition of sulfuric acid (0.9 N) and the colour intensity was measured by means of photometry with an ELISA-reader with a 450 nm filter.
To obtain the values reported in Table 3a, the data were calculated as percentage of the maximum amount of amyloid Beta 42 measured in the absence of the test compound. The sigmoidal dose response curves were analyzed using non-linear regression analysis with percentage of the control plotted against the log concentration of the compound. A 4-parameter equation was used to determine the IC50. The values reported in Table 3a are averaged IC50 values.

[4] = test system: Aβ42; assay: γ-secretase-modulating activity, Method 2: Aβ42 Alphalisa in supernatant of SKNBE2 cells carrying APP 695-wild type (Table 3b); assay type: cell-based; settings: overnight
Outline: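 SKNBE2 cells expressing wild-type APP695 were incubated overnight at 37° C. with test compound. Secreted Aβ42 was then measured by AlphaLISA, using a C-terminal Aβ42 antibody paired with an N-terminal Aβ antibody. IC50 came from a 4-parameter fit of percent of compound-free control.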

[5] = test system: Aβtotal; assay: In vivo efficacy, Method 1: brain soluble Aβtotal lowering 4 h after a single oral dose, ELISA (Table 4a); design: species or system mouse; settings: dose 30 mg/kg oral dosing
From the text: (§4) To determine whether acute administration of an Aβ42 lowering agent would reduce Aβ42 levels in vivo, non-transgenic rodents, e.g. mice or rats were used. Alternatively, two to three month old Tg2576 mice expressing APP695 containing the “Swedish” variant can be used or a transgenic mouse model developed by Dr. Fred Van Leuven (K.U. Leuven, Belgium) and co-workers, with neuron-specific expression of a clinical mutant of the human amyloid precursor protein [V717I] (Moechars et al., 1999 J. Biol. Chem. 274, 6483). Young transgenic mice have high levels of Aβ in the brain but no detectable Aβ deposition. At approximately 6-8 months of age, the transgenic mice start to display spontaneous, progressive accumulation of β-amyloid (Aβ) in the brain, eventually resulting in amyloid plaques within the subiculum, hippocampus and cortex. Animals treated with the Aβ42 lowering agent were examined and compared to those untreated or treated with vehicle and brain levels of soluble Aβ42 and total Aβ would be quantitated by standard techniques, for example, using ELISA. Treatment periods varied from hours (h) to days and were adjusted based on the results of the Aβ42 lowering once a time course of onset of effect could be established.
(§5) A typical protocol for measuring Aβ42 lowering in vivo is shown but it is only one of many variations that could be used to optimize the levels of detectable Aβ. For example, Aβ42 lowering compounds were formulated in 20% of Captisol® (a sulfobutyl ether of β-cyclodextrin) in water or 20% hydroxypropyl cyclodextrin. The Aβ42 lowering agents were administered as a single oral dose or by any acceptable route of administration to overnight fasted animals. After 4 h, the animals were sacrificed and Aβ42 levels were analysed.
(§6) Blood was collected by decapitation and exsanguinations in EDTA-treated collection tubes. Blood was centrifuged at 1900 g for 10 minutes (min) at 4° C. and the plasma recovered and flash frozen for later analysis. The brain was removed from the cranium and hindbrain. The cerebellum was removed and the left and right hemisphere were separated. The left hemisphere was stored at −18° C. for quantitative analysis of test compound levels. The right hemisphere was rinsed with phosphate-buffered saline (PBS) buffer and immediately frozen on dry ice and stored at −80° C. until homogenization for biochemical assays.
(§7) Mouse brains were resuspended in 10 volumes of 0.4% DEA (diethylamine)/50 mM NaCl pH 10 (for non-transgenic animals) or 0.1% 3-[(3-cholamidopropyl)-dimethyl-ammonio]-1-propanesulfonate (CHAPS) in tris buffered saline (TBS) (for transgenic animals) containing protease inhibitors (Roche-11873580001 or 04693159001) per gram of tissue, e.g. for 0.158 g brain, add 1.58 ml of 0.4% DEA. All samples were sonicated for 30 seconds on ice at 20% power output (pulse mode). Homogenates were centrifuged at 221.300×g for 50 min. The resulting high speed supernatants were then transferred to fresh tubes and were optionally further purified before the next step. A portion of the supernatant was neutralized with 10% 0.5 M Tris-HCl and this was used to quantify Aβtotal.
To quantify the amount of Aβ42 in the soluble fraction of the brain homogenates, commercially available Enzyme-Linked-Immunosorbent-Assay (ELISA) kits were used (e.g. Innotest® β-Amyloid(1-42), Innogenetics N.V., Ghent, Belgium). The Aβ42 ELISA was performed using the plate provided with the kit only. Briefly, the standards (a dilution of synthetic Aβ1-42) were prepared in 1.5 ml Eppendorf tube in Ultraculture, with final concentrations ranging from 25000 to 1.5 pg/ml. Samples, standards and blanks (60 μl) were added to the anti-Aβ42-coated plate (the capture antibody selectively recognizes the C-terminal end of the antigen). The plate was allowed to incubate overnight at 4° C. in order to allow formation of the antibody-amyloid complex. […]

[6] = test system: Aβ42; assay: In vivo efficacy, Method 1: brain soluble Aβ42 lowering 4 h after a single oral dose, ELISA (Table 4a); design: species or system mouse; settings: dose 30 mg/kg oral dosing
From the text: as §4, §5, §6, §7
The obtained supernatants were purified with Water Oasis HLB reverse phase columns (Waters Corp., Milford, Mass.) to remove non-specific immunoreactive material from the brain lysates prior subsequent Aβ detection. Using a vacuum manifold, all solutions were passed through the columns at a rate of approximately 1 ml per min, so the vacuum pressure was adjusted accordingly throughout the procedure. Columns were preconditioned with 1 ml of 100% MeOH, before equilibration with 1 ml of H2O, Non-neutralized brain lysates were loaded onto the columns. The loaded samples were then washed twice with the first wash performed with 1 ml of 5% MeOH, and the second wash with 1 ml of 30% MeOH. Finally, the Aβ was eluted from the columns and into 100×30 mm glass tubes, with a solution of 90% MeOH with 2% NH4OH. […]

| SMILES | IC50 ([1]; Homo sapiens) [nM] | IC50 ([2]; Homo sapiens) [µM] | IC50 ([3]; Homo sapiens) [nM] | IC50 ([4]; Homo sapiens) [nM] | Aβtotal (% Ctrl) _Mean [5] [% Ctrl] | Aβ42 (% Ctrl) _Mean [6] [% Ctrl] | IC50 [2] [µM] | IC50 [4] [nM] | IC50 [1] [nM] | IC50 [3] [nM] | melting point [°C] |
| --- | --- | --- | --- | --- | --- | --- | --- | --- | --- | --- | --- |
| Cc1cn(-c2ccc(-c3nc(Nc4cccc(C(F)(F)F)c4)n[nH]3)cn2)cn1 [Compound 24] | > 3000 | 6.61 | 1450 | 1050 | – | – | – | – | – | – | – |
| COc1cc(-c2nc(-c3cccc(C(F)(F)F)c3)n(C(C)C)n2)ccc1-n1cnc(C)c1 [Compound 39] | – | 7.94 | – | 105 | 0 | 17 | – | – | – | – | – |
| COc1cc(-c2nc(C(C)C)n(-c3cccc(C(F)(F)F)c3)n2)ccc1-n1cnc(C)c1.Cl [Compound 32] | – | – | – | – | 2 | 6 | 6.76 | 191 | – | – | – |
| COc1cc(-c2nc(C)c(-c3cccc(C(F)(F)F)c3)[nH]2)ccc1-n1cnc(C)c1 [Compound 12] | > 3000 | 3.63 | 90 | 33 | – | – | – | – | – | – | – |
| COc1cc(-c2nc(-c3ccccc3)c(C)[nH]2)ccc1-n1ncnc1C [Compound 299] | – | – | – | – | – | – | > 10 | 8130 | > 3000 | > 3000 | – |
| COc1cc(-c2nc(CC(C)C)c(C)[nH]2)ccc1-n1cnc(C)c1 [Compound 26] | – | – | – | – | – | – | – | – | > 3000 | 760 | – |
| CCCc1[nH]c(-c2ccc(-n3cnc(C)c3)c(OC)c2)nc1-c1ccccc1 [Compound 29] | – | – | – | – | – | – | > 10 | 170 | > 3000 | 190 | – |
| COc1cc(-c2nc(C)c(C)[nH]2)ccc1-n1cnc(C)c1 [Compound 25] | – | – | – | – | – | – | > 10 | 6460 | > 3000 | 2510 | – |
| COc1cc(-c2nc(C)c(-c3cccc(C(F)(F)F)c3)n2C)ccc1-n1cnc(C)c1 [Compound 13] | – | – | – | – | – | – | > 10 | 724 | > 3000 | 1050 | – |
| COc1cc(-c2nc(-c3cccc(C(F)(F)F)c3)c(C)n2C)ccc1-n1cnc(C)c1 [Compound 14] | – | – | – | – | – | – | 5.25 | 282 | > 3000 | 500 | – |
| COc1cc(-c2nc(-c3ccccc3)c(C)[nH]2)ccc1-n1cnc(C)n1 [Compound 28] | – | – | – | – | – | – | > 3 | > 3000 | > 3000 | > 3000 | – |
| COc1cc(-c2nc(C)n(-c3ccc(F)cc3)n2)ccc1-n1cnc(C)c1 [Compound 3] | > 3000 | > 10 | 490 | 417 | – | – | – | – | – | – | 157.3 |
| COc1nc(-c2nc(-c3cccc(C(F)(F)F)c3)n(C(C)C)n2)ccc1-n1cnc(C)c1.Cl.Cl [Compound 68] | – | – | – | – | −3 | 29 | > 10 | 135 | – | – | – |
| COc1cc(-n2cnc(C)c2)ccc1-c1nc(-c2ccccc2)c(C)[nH]1 [Compound 27] | – | – | – | – | – | – | > 3 | < 3000 | > 10000 | 170 | – |
